Article PMC9519446, “Discovery of an Orally Active Benzoxaborole Prodrug Effective in the Treatment of Chagas Disease in Non-human Primates” (Nature microbiology, 2022)
pIC50: −log10 of the molar value. Where “and” joins values, the source holds several entries; their conditions need not be identical. Equal entries are not always repeated.

Key:
[1] = tested on: CPSF3 mutant T. cruzi intracellular amastigotes; assay: Intracellular amastigote assay with CPSF3 Asn to His mutant T. cruzi; type: cell-based, Trypanosoma cruzi; settings: for % of maximum: Fig 5.d, CPSF3-mutant
Procedure: The in vitro anti-T. cruzi amastiogote activity assay was performed and optimized based on the protocol described previously. The change in tdTomato fluorescence intensity was determined as a measurement of growth over 72 hours of culture. For assaying drug effects on extracellular amastigotes, trypomastigotes were collected from infected Vero cell cultures and converted in acidic media as previously described. Amastigotes (50,000/well) were incubated with 2-fold serial dilutions of compounds for 48 hours. The ATP production was used as an indication of growth in this case, and was measured by ATPlite Luminescence ATP Detection Assay System (PerkinElmer). Both fluorescence and luminescence were read using a BioTek Synergy Hybrid Multi-Mode reader equipped with the software Gene5 v 2.0 (BioTek). The dose-response curve was generated by […] analysis with GraphPad Prism v9.4.0 (GraphPad Software).
To generate CPSF3 mutant, a RNP c omplex was transfected into Brazil tdTomato strain epimastigotes to target the CPSF3 gene (TcBrA4_0124800), together with a repair template that contained the mutation of Asn^231 to His[21]. The sgRNA targeted the ‘[…]’ site. […] The ultimate resistant parasites were validated to have acquired the Asn^231His mutation in CPSF3 via sequencing.

[2] = NHP health screening: hematology (CBC); type: in vivo, rhesus macaques (Macaca mulatta)
Procedure: Under light-anesthesia/sedation, peripheral blood samples were collected from each animal prior to treatment and at 7 time points following. Blood analysis (CBC and serum chemistry assays) and physical exams to evaluate the health of the study animals were performed on each animal prior to the beginning of the study and also at three time points during the treatment protocol (see Supplementary data).

[3] = Mean of treated female rhesus macaques, blood sample of 2018-03-26/27
[4] = Treated rhesus macaques, individual animal, blood sample of 2018-03-26/27
[5] = drug-treatment phase, returned to pre-study values by the final blood draw
[6] = treated female macaques, mid-dosing bleed, Mean
[7] = treated female macaques, post-dosing bleed, Mean

SMILES: Cc1c(C(=O)N[C@H](C(=O)OCC2CCOCC2)C(C)C)ccc2c1B(O)OC2 [AN15368]
- % of maximum ([1]; 0.10): 3% and 1%
- % of maximum ([1]; 0.40): -6%
- % of maximum ([1]; 0.70): 2% and -5%
- % of maximum ([1]; 1.00): -6% and -2%
- % of maximum ([1]; 1.30): -4% and -2% and 5%
- % of maximum ([1]; -0.51): 97% and 106% and 96%
- % of maximum ([1]; -0.81): 96% and 123% and 105%
- % of maximum ([1]; -1.11): 92% and 97% and 122%
- pIC50 ([1]; Trypanosoma cruzi, read-out: CPSF3 mutant IC50): 6.30
- Baso, Mean [2, 3]: 0.01 10^3/µL
- Eos, Mean [2, 3]: 0.09056 10^3/µL
- Hct, Mean [2, 3]: 42.7278%
- Hgb, Mean [2, 3]: 13.2278 G/Dl
- Lymp, Mean [2, 3]: 2.112 10^3/µL
- Mch, Mean [2, 3]: 22.4444 Pgs
- Mchc, Mean [2, 3]: 30.9611 G/Dl
- Mcv, Mean [2, 3]: 72.4667 fL
- Mono, Mean [2, 3]: 0.2806 10^3/µL
- Mpv, Mean [2, 3]: 7.333 fL
- Neut, Mean [2, 3]: 3.369 10^3/µL
- Plt, Mean [2, 3]: 334.722 10^3/µL
- Rbc, Mean [2, 3]: 5.902 10^6/µL
- Rdw, Mean [2, 3]: 12.2111%
- Wbc, Mean [2, 3]: 5.862 10^3/µL
- Baso [2, 4]: 0.01 10^3/µL and 0 10^3/µL
- Eos [2, 4]: 0.24 10^3/µL and 0.09 10^3/µL and 0.02 10^3/µL and 0.17 10^3/µL and 0.16 10^3/µL
- Hct [2, 4]: 46.5% and 43.6% and 38.8% and 40.8% and 41.6%
- Hgb [2, 4]: 14.6 G/Dl and 13 G/Dl and 11.7 G/Dl and 13.1 G/Dl
- Lymp [2, 4]: 2.42 10^3/µL and 2.63 10^3/µL and 1.31 10^3/µL and 3.46 10^3/µL and 2.68 10^3/µL
- Mch [2, 4]: 21.8 Pgs and 21.4 Pgs and 21.5 Pgs and 22.2 Pgs and 22.8 Pgs
- Mchc [2, 4]: 31.4 G/Dl and 29.8 G/Dl and 30.2 G/Dl and 32.1 G/Dl and 31.5 G/Dl
- Mcv [2, 4]: 69.6 fL and 71.6 fL and 71.5 fL and 69.4 fL and 72.5 fL
- Mono [2, 4]: 0.38 10^3/µL and 0.28 10^3/µL and 0.1 10^3/µL and 0.31 10^3/µL
- Mpv [2, 4]: 7.6 fL and 6.9 fL and 7.2 fL and 6.4 fL
- Neut [2, 4]: 3.03 10^3/µL and 1.68 10^3/µL and 2.26 10^3/µL and 1.88 10^3/µL and 0.86 10^3/µL
- Plt [2, 4]: 347 10^3/µL and 388 10^3/µL and 304 10^3/µL and 339 10^3/µL and 367 10^3/µL
- Rbc [2, 4]: 6.68 10^6/µL and 6.09 10^6/µL and 5.43 10^6/µL and 5.88 10^6/µL and 5.74 10^6/µL
- Rdw [2, 4]: 11.4% and 12.7% and 10.8% and 12.3% and 12.2%
- Wbc [2, 4]: 6.07 10^3/µL and 4.69 10^3/µL and 3.69 10^3/µL and 5.83 10^3/µL and 3.99 10^3/µL
- lymphocytes in the blood [2, 5]: mildly elevated
- monocytes in the blood [2, 5]: mildly elevated
- Baso [2, 6]: 0.01333 10^3/µL
- Eos [2, 6]: 0.09889 10^3/µL
- Hct [2, 6]: 41.4111%
- Hgb [2, 6]: 13.2333 G/Dl
- Lymp [2, 6]: 3.343 10^3/µL
- Mch [2, 6]: 23.5333 Pgs
- Mchc [2, 6]: 31.9611 G/Dl
- Mcv [2, 6]: 73.75 fL
- Mono [2, 6]: 0.2572 10^3/µL
- Mpv [2, 6]: 7.506 fL
- Neut [2, 6]: 2.007 10^3/µL
- Plt [2, 6]: 319.5 10^3/µL
- Rbc [2, 6]: 5.621 10^6/µL
- Rdw [2, 6]: 12.4556%
- Wbc [2, 6]: 5.718 10^3/µL
- Baso [2, 7]: 0.01167 10^3/µL
- Eos [2, 7]: 0.09 10^3/µL
